Measured values as given in patent US7686852B2, “Monoazo dyes” (Clariant Finance (BVI) Limited, priority 2004, dated 2010).

Assays:
[1] = hot water, then cooling; cited from earlier work
[2] = Comparative Test Series 3: stability of dye solution after cooling to 25° C. and 48 hours, filtration test; type: physicochemical; design: key to Aspect of the solution after the 48 hours: 1): after cooling down turned immediately cloudy; 2): remained clear after cooling down; key to Grade of the visual inspection of the upper filter: a grade of 5 signifies no residue; 4 signifies little, fine residues; 3 signifies bigger residues; 2 signifies coarse residues; 1 signifies a compact layer of precipitated dyestuff; settings: for Aspect of the solution after the 48 hours: dissolved at 90° C., kept at 25° C. for 48 hour; for time for passing of the 200 ml of dye solution trough the 2 filter layers / Grade of the visual inspection of the upper filter: after 48 hour at 25° C.; for Grade of the visual inspection of the upper filter: filtered through 2 paper filters
Protocol: In 160 ml of water a certain amount of dyestuff was dissolved at 90° C. and the resulting solution was diluted to 200 ml by adding water of 90° C. This solution was put in a water bath kept at 25° C. and after the dye solution was at 25° the dye solution was let for 48 hour without stirring or shaking at 25° C.
The solution was visually inspected first and the filtrated trough 2 layers of paper filters of 70 mm diameter (Typ 1450 CV obtainable from Schleicher & Schuell MicroScience GmbH
Hahnestrasse 3; D-37586 Dassel). The time for passing of the 200 ml of dye solution was measured and the upper filter was inspected visually. Grades are given and a grade of 5 signifies no residue, 4 signifies little, fine residues, 3 signifies bigger residues, 2 signifies coarse residues and 1 signifies a compact layer of precipitated dyestuff.

[3] = Solubility in water / stability of stock solutions; type: physicochemical; settings: room temperature

Compound	solubility in water [1]	Aspect of the solution after the 48 hours ([2]; 6 g/Liter in water)	time for passing of the 200 ml of dye solution trough the 2 filter layers ([2]; 6 g/Liter)	Grade of the visual inspection of the upper filter ([2]; 6 g/Liter)	Aspect of the solution after the 48 hours ([2]; 12 g/Liter in water)	time for passing of the 200 ml of dye solution trough the 2 filter layers ([2]; 12 g/Liter)	Grade of the visual inspection of the upper filter ([2]; 12 g/Liter)	Aspect of the solution after the 48 hours ([2]; 20 g/Liter in water)	time for passing of the 200 ml of dye solution trough the 2 filter layers ([2]; 20 g/Liter)	Grade of the visual inspection of the upper filter ([2]; 20 g/Liter)	Aspect of the solution after the 48 hours ([2]; 30 g/Liter in water)	time for passing of the 200 ml of dye solution trough the 2 filter layers ([2]; 30 g/Liter)	Grade of the visual inspection of the upper filter ([2]; 30 g/Liter)	stability of stock solutions [3]
Cc1ccc(S(=O)(=O)Oc2ccc(/N=N/c3ccc(Nc4ccc(S(=O)(=O)O)cc4[N+](=O)[O-])cc3)c(C)c2)cc1	soluble in hot water, but partly reprecipitates on cooling	1)	16 s	4	1)	27 s	3	1)	33 s	2 to 3	1)	95 s	1 to 2	–
Cc1cc(OS(=O)(=O)c2ccc(C(C)(C)C)cc2)ccc1/N=N/c1ccc(Nc2ccc(S(=O)(=O)O)cc2[N+](=O)[O-])cc1 [Example 1]	–	2)	6 s	4	2)	7 s	3 to 4	2)	7 s	3	2)	8 s	2 to 3	remain clear for several weeks even at room temperature
